From patent publication US5747521A (priority 1992, dated 1998)
Like-named read-outs stand apart in the source and are kept apart here.

Experiments:
[1] = tested on: number of stretchings (anti-writhing); assay: Analgesic activity test (anti-writhing method by Whittle); format: in vivo, male ICR-mice; details: for ED50: Mus musculus, 1 h, read-out: ED50 Oral administration; for analgesic activity / analgesic action: conclusion in words from Table 3
Protocol: After the lapse of 60 minutes, the number of stretchings in the course of 10 minutes was measured as an index to a algesic sense.

[2] = tested on: carrageenan induced hind-paw edema; assay: Anti-inflammatory activity test (carrageenan induced hind-paw edema method, Winter); format: in vivo, male rats; details: for A rate of inhibition: 100 mg/kg p.o., 1% carrageenan one hour after dosing, edema measured 3 hours and 5 hours thereafter, significance (p.v.) 0.01; for edema inhibition effect / anti-inflammatory action: conclusion in words from Table 2
Protocol: The volume of legs was measured before a solution of a drug was administered to a group of 8 mature male rats (weight 170±20 g) and 0.1 ml /rat of 1% carrageenan physiological saline solution was injected subcutaneously into the sole of hind of leg of rats one hour after the oral administration and edema thereby caused was measured 3 hours and 5 hours thereafter. In this way, a rate of edema formation and a rate of inhibition were calculated.

in vivo [3] = assay: in vivo; design: species or system male SD-rats; details: rat, po
Protocol: A solution of a drug was administered through the mouths of a group of 8 mature male SD-rats (weight 130±20 g) performing a fast for 24 hours. […] Capacity which causes 50% bleeding (UD50) was calculated according to the Ritchfield and Wilcoxon method (J. Pahrmacol., 69, 99, 1949) with bleeding more than 1 mm in diameter as positivity.

in vivo [4] = details: mouse
[5] = ip, read-out: LD50 Abdominal administration
[6] = oral, single dose, fasted mice, mortality up to 72 hours, read-out: LD50 Oral administration
[7] = oral, stretchings counted in 10 minutes, 60 minutes after dosing

SMILES	ED50 ([1]; po)	A rate of inhibition [2]	TD50 at 4 h (in vivo [3])	LD50 at 72 h (in vivo [4]; [5])	LD50 at 72 h (in vivo [4]; [6])	ED50 [1, 7]	analgesic activity / analgesic action [1]	edema inhibition effect / anti-inflammatory action [2]	LD50 at 72 h (in vivo [4]; ip, into the abdominal cavity, single dose, fasted mice, mortality up to 72 hours, read-out: LD50 Abdominal administration)
COc1ccc2c(c1)c(CC(=O)O)c(C)n2C(=O)C=Cc1ccccc1 [Cinmetacin, N-cinnamoyl-2-methyl-5-methoxy-3-indoleacetic acid, reference compound]	36 mg/kg	65%	18 mg/kg						
COc1ccc2c(c1)c(CC(=O)OCC=CCO)c(C)n2C(=O)C=Cc1ccccc1 [Compound 1, 0-(4-hydroxy-2-butene)-N-cinnamoyl-5-methoxy-2-methyl-3-indoleacetate]		57%	100 mg/kg	520 mg/kg	2000 mg/kg	70 mg/kg	significant analgesic action	almost similar to the widely known cinmetacin	
COc1ccc2c(c1)c(CC(=O)OC(C)C(C)O)c(C)n2C(=O)C=Cc1ccccc1 (stereo not shown) [Compound 2, 0-(3-hydroxy-2-buthanyl)-cinnamoyl-5-methoxy-2-methyl-3-indoleacetate]		52%	175 mg/kg	570 mg/kg	4200 mg/kg	31 mg/kg	analgesic activity equal to cinmetacin	almost similar to the widely known cinmetacin	
COc1ccc2c(c1)c(CC(=O)OCC1CCCCO1)c(C)n2C(=O)C=Cc1ccccc1 (stereo not shown) [Compound 3, 0-(2-tetrahydropyranilmethyl)-N-cinnamoyl-5-methoxy-2methyl-3-indoleacetate]		43%	230 mg/kg	1150 mg/kg	6000 mg/kg	95 mg/kg	significant analgesic action	significant anti-inflammatory action	
CC1=C(CC(=O)O)c2cc(F)ccc2/C1=C\c1ccc([S+](C)[O-])cc1 (stereo not shown) [Sulindac, reference compound]	60 mg/kg		14 mg/kg		980 mg/kg				235 mg/kg
